Several values for one entry are separate records, joined by “and”; a condition that tells them apart may be missing. Equal values may be shown once.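 Tested at 5 concentrations; 48 h exposure; 96-well plates; endpoints linearly interpolated, else capped at highest concentration. GI50 = concentration required for 50% inhibition of growth. TGI denotes the concentration required for complete inhibition of growth.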
Key:
Assay in all cases: NCI tumour cell line growth inhibition, 48 h
HCT-116 colon = test system: HCT-116 colon
HCT-15 colon = test system: HCT-15 colon
SNB-19 CNS = test system: SNB-19 CNS
EKVX NSCLC = test system: EKVX NSCLC
SF-539 CNS = test system: SF-539 CNS
RXF 393 renal = test system: RXF 393 renal
K-562 leukemia = test system: K-562 leukemia
HT29 colon = test system: HT29 colon
CCRF-CEM leukemia = test system: CCRF-CEM leukemia
SF-268 CNS = test system: SF-268 CNS

Nc1ccc2c(c1)C(=O)C(=O)c1c-2nc2ccccn12
GI50 (HCT-116 colon): 1.04 µM | TGI (HCT-116 colon): 2.29 µM | GI50 (HCT-15 colon): 0.427 µM | TGI (HCT-15 colon): 1.87 µM | GI50 (SNB-19 CNS): 1.64 µM | TGI (SNB-19 CNS): 3.23 µM | GI50 (EKVX NSCLC): 2.04 µM | TGI (EKVX NSCLC): 4.52 µM | GI50 (SF-539 CNS): 1.66 µM | TGI (SF-539 CNS): 3.03 µM | GI50 (RXF 393 renal): 1.6 µM | TGI (RXF 393 renal): 2.99 µM | GI50 (K-562 leukemia): 1.09 µM | TGI (K-562 leukemia): 3.88 µM | GI50 (HT29 colon): 3.97 µM | TGI (HT29 colon): 34.9 µM | GI50 (CCRF-CEM leukemia): 1.77 µM | TGI (CCRF-CEM leukemia): 5.27 µM

Cc1ccc(S(=O)(=O)N[C@H](C(=O)O)c2ccccc2)cc1
TGI (HCT-15 colon): > 100 µM | TGI (SNB-19 CNS): > 100 µM | TGI (EKVX NSCLC): > 100 µM | TGI (SF-539 CNS): > 100 µM | TGI (RXF 393 renal): > 100 µM | TGI (K-562 leukemia): > 100 µM | TGI (HT29 colon): > 100 µM | TGI (SF-268 CNS): > 100 µM | TGI (CCRF-CEM leukemia): > 100 µM

Cc1ccc2c(c1)C(C)Cc1c(ncnc1-n1cnc3ccccc31)N2C (stereo not given)
GI50 (HCT-116 colon): 0.407 µM | TGI (HCT-116 colon): 11.9 µM | GI50 (HCT-15 colon): 0.414 µM | TGI (HCT-15 colon): 12.7 µM | GI50 (SNB-19 CNS): 0.537 µM | TGI (SNB-19 CNS): 21 µM | GI50 (EKVX NSCLC): 0.511 µM | TGI (EKVX NSCLC): 17.5 µM | GI50 (SF-539 CNS): 0.337 µM | TGI (SF-539 CNS): 13.5 µM | GI50 (K-562 leukemia): 0.0801 µM | TGI (K-562 leukemia): 14.1 µM | GI50 (HT29 colon): 0.34 µM | TGI (HT29 colon): 12.1 µM | GI50 (SF-268 CNS): 1.19 µM | TGI (SF-268 CNS): 17.7 µM | GI50 (CCRF-CEM leukemia): 0.267 µM | TGI (CCRF-CEM leukemia): 12.6 µM

CC1CC(C2=CC=CCS2)=Nc2ccccc2S1 (stereo not given)
TGI (HCT-116 colon): > 100 µM | TGI (HCT-15 colon): > 100 µM | TGI (SNB-19 CNS): > 100 µM | TGI (EKVX NSCLC): > 100 µM | TGI (SF-539 CNS): > 100 µM | TGI (RXF 393 renal): > 100 µM | TGI (K-562 leukemia): > 100 µM | TGI (SF-268 CNS): > 100 µM | TGI (CCRF-CEM leukemia): > 100 µM

CN1N=CSC12C(=O)N(c1ccc(Cl)cc1)C(=O)N2c1ccc(Cl)cc1 (stereo not given)
TGI (HCT-116 colon): 13.3 µM | TGI (SNB-19 CNS): 69.5 µM | TGI (EKVX NSCLC): > 100 µM | TGI (SF-539 CNS): > 100 µM | TGI (RXF 393 renal): 36.1 µM | TGI (K-562 leukemia): 22.3 µM | TGI (HT29 colon): 32 µM | TGI (SF-268 CNS): > 100 µM | TGI (CCRF-CEM leukemia): > 100 µM

COc1cc(C2c3[nH]c4ccccc4c3C[C@H]3COC(=O)N23)cc(OC)c1OC (stereo not given in full)
GI50 (HCT-15 colon): < 0.01 µM | TGI (HCT-15 colon): 6.72 µM and 1.39 µM | TGI (SNB-19 CNS): 3.16 µM | TGI (EKVX NSCLC): > 100 µM | GI50 (SF-539 CNS): < 0.01 µM | GI50 (K-562 leukemia): < 0.01 µM | TGI (K-562 leukemia): 1.13 µM | GI50 (HT29 colon): < 0.01 µM | TGI (HT29 colon): > 100 µM | GI50 (SF-268 CNS): < 0.01 µM | TGI (SF-268 CNS): > 100 µM | TGI (CCRF-CEM leukemia): 0.0789 µM

COc1ccccc1/C=C(\C#N)c1ccccc1
TGI (HCT-116 colon): > 100 µM | TGI (HCT-15 colon): 67.4 µM | TGI (SF-539 CNS): > 100 µM | TGI (RXF 393 renal): 69.3 µM | TGI (K-562 leukemia): 33.8 µM | TGI (HT29 colon): > 100 µM | TGI (SF-268 CNS): > 100 µM | TGI (CCRF-CEM leukemia): 55.2 µM

N#Cc1ccccc1NC(=O)/C(=N\N)C(C(=O)c1ccncc1)C1OC(=O)c2ccccc21 (stereo not given)
TGI (HCT-116 colon): > 100 µM | TGI (HCT-15 colon): > 100 µM | TGI (SNB-19 CNS): > 100 µM | TGI (EKVX NSCLC): > 100 µM | TGI (SF-539 CNS): > 100 µM | TGI (K-562 leukemia): > 100 µM | TGI (HT29 colon): > 100 µM | TGI (SF-268 CNS): > 100 µM | TGI (CCRF-CEM leukemia): > 100 µM

O=C(Nc1ccc(Cl)cc1Cl)C1C(=O)N(c2ccc(Cl)cc2Cl)C(=O)/C1=N\Nc1ccc([N+](=O)[O-])cc1[N+](=O)[O-] (stereo not given)
TGI (HCT-116 colon): > 100 µM | TGI (HCT-15 colon): > 100 µM | TGI (SNB-19 CNS): > 100 µM | TGI (EKVX NSCLC): > 100 µM | TGI (SF-539 CNS): > 100 µM | TGI (K-562 leukemia): > 100 µM | TGI (HT29 colon): > 100 µM | TGI (SF-268 CNS): > 100 µM | TGI (CCRF-CEM leukemia): > 100 µM

CC(NS(=O)(=O)c1ccc([N+](=O)[O-])cc1)C(=O)O (stereo not given)
TGI (HCT-15 colon): > 100 µM | TGI (SNB-19 CNS): > 100 µM | TGI (EKVX NSCLC): > 100 µM | TGI (SF-539 CNS): > 100 µM | TGI (RXF 393 renal): > 100 µM | TGI (K-562 leukemia): > 100 µM | TGI (HT29 colon): > 100 µM | TGI (SF-268 CNS): > 100 µM | TGI (CCRF-CEM leukemia): > 100 µM

Reference: PubChem BioAssay (NCI)
